# Measurements published in paper PMC8333425, “Discovery of a dual Ras and ARF6 inhibitor from a GPCR endocytosis screen” (Nature Communications, 2021).
# “And” between values parts separate entries of the source, which are not always exact repeats. Equal values may be shown once.
# Legend:
# [1] = Maximal solubility concentration; type: physicochemical
# AT1R = assay: Endosomal BRET assay of AngII-mediated AT1R internalization (AT1R-RlucII / Endo-rGFP; HTS, validation, concentration-response); type: cell-based, human
# Excerpt: We performed a HT campaign in HEK293 cells using the bystander endosomal BRET sensor, which consists of a Renilla luciferase (RlucII)-tagged AT1R and an acceptor renilla GFP (rGFP) anchored to endosomes through an Endofin-FYVE (Endo-rGFP) domain[12]. AngII-mediated trafficking of AT1R to endosomes was screened against commercial libraries of ~115,000 small molecules (Fig. 1a and Supplementary Data 1). Because our assay is based on luminescence and fluorescence, we excluded 6610 compounds that quenched more than 50% of the luciferase or GFP signals. After excluding 5 AT1R antagonists, we conserved hit compounds blocking by more than 40%, as well as those potentiating by more than 100% receptor internalization. From this collection of 943 compounds, a second validation on AT1R internalization was performed using the same BRET assay, as well as on the agonist-mediated B2R internalization, this time using B2R-RlucII and Endo-rGFP. Only compounds that were revalidated on AT1R and affected B2R endocytosis were kept, which included forty hits (20 potentiators and 20 inhibitors) (Fig. 1b and Supplementary Data 2). We focused on inhibitors that were commercially available at the beginning of the project and tested their cell toxicity by microscopy, looking at cells expressing B2R tagged with YFP, which highlights cell contours and potential morphological changes, such as rounding up of cells following treatment with 50 μM of the compounds that may have indicated cell death. None of the inhibitors tested caused abnormal cell morphological changes when cells were treated with compounds as compared to DMSO-treated cells. Inhibitors were also assessed in terms of structure novelty, derivatization potential, and commercial availability of analogs (within 95–98% similarity from Tanimoto metric, Sci-Finder, https://scifinder-n.cas.org), for structure-activity relationship studies (SAR). They were scored 1–5, from best to worst. We excluded compounds with potential nucleophilic reactivity (e.g., Michael addition: compounds 7, 26, and 27), those reported to have biological activities (compounds 8, 20, 25, 30, and 35) and/or showing autofluorescence (compound 26). Compound 19 ranked high, but only had one other molecule with a similar structure available. Although other molecules could be interesting in their own rights as endocytosis inhibitors (e.g., compounds 1, 9, 11, 12, 13, 24, 31, and 37), we focused on compound 21 (Fig. 1c) because not only did it rank high in our analysis, but it was also the only compound with substantially more similar analogs commercially available at the time of these investigations. In the screen and the follow-up validation assay, 21 inhibited more than 50% AT1R internalization and more than 65% B2R internalization (Supplementary Data 2). […] Because β-arrestins are critically involved in GPCR endocytosis and trafficking in cells, we assessed 21’s effects on β-arrestins’ recruitment to AT1R and B2R at the PM using a BRET assay, as well as their trafficking into endosomes by microscopy.
# The chemical library used for initial screening was from Chembridge DiverSet™ (60,000 compounds), Maybridge HitFinder™ (16,000 compounds), Maybridge (selected, 16,000 compounds), SPECS (selected, 16000 compounds), Microsource Discovery Spectrum (2000 compounds), Biomol (natural products, 500 compounds), Prestwick (commercialized products, 1120 compounds), SIGMA LopacTM (1280 compounds) and internal collection (synthesized at Université de Montréal-IRIC, ~4000 compounds). Compounds were all assigned an Université de Montréal number (UM) for internal use. Screen was performed at IRIC HTS facility. KINOMEscan™ profiling was serviced by Eurofin/DiscoverX (San Diego, USA).
# HEK293SL cells were seeded at a density of 7.5 × 10^5 cells per 100-mm dish and 24 h later, transiently transfected as such. […]
# MDA-MB-231 cells [2] = assay: Cell proliferation assay (IncuCyte confluence), MDA-MB-231; type: cell-based, human
# Method: Cell proliferation was measured by a label-free, non-invasive cellular confluence assay using IncuCyte Live-Cell Imaging Systems (Essen Bioscience, Ann Arbor, MI, USA). MDA-MB-231 breast cancer and A549 lung carcinomas cells (1500 cells in 150 μl/well) were seeded overnight on a clear 96-well plate. Twenty-four hours later, the cells were treated with 0.1% DMSO, or different concentrations of Rasarfin (as indicated), or 10 µM of 21.4 or 21.8 for 96 h total. The plate was placed in an XL-3 incubation chamber maintained at 37 °C and the cells were photographed using a ×4 objective, every 3 h for 4 days. Cell confluence was calculated using IncuCyte S3 software (2019A) and cell proliferation was expressed as an increase in the percentage of confluence. Experiments were done in triplicate and repeated three times.
# MDA-MB-231 cells [3] = assay: Cell viability assay (MTT), MDA-MB-231; type: cell-based, human; details: for cell viability (MTT signal): S_Fig12f, listed as Comp 21.8
# Method: MDA-MB-231 breast cancer cells and A549 lung carcinomas (1500 cells in 150 μl/well) were seeded overnight on a clear 96-well plate. Twenty-four hours later, the cells were treated with 0.1% DMSO, or different concentrations of Rasarfin (as indicated), or 10 µM of 21.4, 21.8 (MDA-MB-231 breast cancer cells) or Doxorubicin for the indicated times at 37 °C. At each time point, 10 μl of 5 mg/ml MTT was added to each well and the plates were incubated for an additional 4 h at 37 °C. The absorbance at 590 nm was measured by plate reader. Experiments were done in triplicate and repeated three times.
smiles,measurement,setting,value
"Nn1cnc2scc(-c3ccc(Cc4ccccc4)cc3)c2c1=O [Barbadin, reference compound]",maximal solubility concentration,[1],100 µM
CCCC(=O)N1CCN(c2ccc(NC(=O)c3cc4ccccc4o3)cc2Cl)CC1 [Compound 21.8],inhibition of AT1R internalization into endosomes (Fig. 8a),AT1R; 50 μM,loss of compounds’ efficacy to inhibit AT1R internalization
same,MDA-MB-231 cell proliferation (confluency),MDA-MB-231 cells [2]; 10 µM,inhibited cell proliferation
same,metabolic activity of MDA-MB-231 cells (MTT),MDA-MB-231 cells [3]; 10 µM,moderately decreasing the metabolic activity of cancer cells
same,cell viability (MTT signal),MDA-MB-231 cells [3]; 24h,0.2449 and 0.2125 and 0.1916
same,cell viability (MTT signal),MDA-MB-231 cells [3]; 48h,0.2769 and 0.2869 and 0.2058
same,cell viability (MTT signal),MDA-MB-231 cells [3]; 72h,0.2794 and 0.3667 and 0.3826
CC(C)C(=O)N1CCN(c2ccc(NC(=O)c3cc4ccccc4o3)cc2Cl)CC1 [Compound 21],block of AT1R internalization,AT1R; 21 at 50 µM,around 90%
same,"Mean Diff. DMSO vs. compound (Fig.8a, Dunnett's multiple comparisons test)",AT1R; DMSO = 100,49.06
same,IC50,"AT1R; Homo sapiens, AngII, into endosomes, read-out: IC50 for inhibition of AT1R internalization",10 µM
same,"AT1R internalization into endosomes, ligand-promoted BRET (Mean)",AT1R; Log [Comp21] (M) -4.3,13.6921 percent compared to DMSO
same,"AT1R internalization into endosomes, ligand-promoted BRET (Mean)",AT1R; Log [Comp21] (M) -4.6,24.3306 percent compared to DMSO
same,"AT1R internalization into endosomes, ligand-promoted BRET (Mean)",AT1R; Log [Comp21] (M) -5,74.1156 percent compared to DMSO
same,"AT1R internalization into endosomes, ligand-promoted BRET (Mean)",AT1R; Log [Comp21] (M) -5.3,91.7102 percent compared to DMSO
same,"AT1R internalization into endosomes, ligand-promoted BRET (Mean)",AT1R; Log [Comp 21] (M) -6,95.8484 percent compared to DMSO
same,"AT1R internalization into endosomes, ligand-promoted BRET (Mean)",AT1R; Log [Comp21] (M) -6.3,92.6647 percent compared to DMSO
same,"AT1R internalization into endosomes, ligand-promoted BRET (Mean)",AT1R; Log [Comp 21] (M) -7,100.935 percent compared to DMSO
same,AT1R Confirmation Inhibition (%DMSO),"AT1R; confirmation, two experiments, negative = potentiation",60.3475 %DMSO
same,AT1R Primary Screen Inhibition (%DMSO),"AT1R; primary screen, negative = potentiation",53.93 %DMSO
same,inhibition of AT1R internalization,AT1R; screen and follow-up validation assay,more than 50%
same,MDA-MB-231 cell growth (confluency),MDA-MB-231 cells [2]; various concentrations of Rasarfin,dose-dependent reduction in cell growth over time
same,MDA-MB-231 cell viability (MTT),MDA-MB-231 cells [3]; Doxorubicin 10 µM,cell viability was not affected
same,metabolic activity of MDA-MB-231 cells (MTT),"MDA-MB-231 cells [3]; after 48 and 72 h of treatment, compared to DMSO",modestly decreased in a dose-dependent manner the metabolic activity of cancer cells
same,solubility,"[1]; DMSO, organic solvent or mixture, read-out: maximum solubility concentration in DMSO",~50 µM
